From US20090099192A1, “Substituted 1H-pyrrole-2,5-diones” (Bayer CropScience AG, priority 2004, published 2009)

Key:
[1] = tested on: green peach aphid (Myzus persicae); test: Myzus test (spray treatment, Brassica pekinensis); assay type: in vivo; details: for Kill rate in % after 5 d: 500 g/ha, spray, Brassica pekinensis disks
Protocol: [table] To produce a suitable preparation of active compound, 1 part by weight of active compound is mixed with the stated amounts of solvents and emulsifier, and the concentrate is diluted with emulsifier-containing water to the desired concentration. Disks of Chinese cabbage (Brassica pekinensis) which are infested by all stages of the green peach aphid (Myzus persicae) are sprayed with an active compound preparation of the desired concentration. After the desired period of time, the effect in % is determined. 100% means that all aphids have been killed; 0% means that none of the aphids have been killed.

[2] = tested on: caterpillars of the diamond back moth (Plutella xylostella); test: Plutella test; assay type: in vivo
Protocol: (§1) [table] To produce a suitable preparation of active compound, 1 part by weight of active compound is mixed with the stated amounts of solvent and emulsifier, and the concentrate is diluted with emulsifier-containing water to the desired concentration. Cabbage leaves (Brassica oleracea) are treated by being dipped into the active compound preparation of the desired concentration and populated with caterpillars of the diamond back moth (Plutella xylostella) while the leaves are still moist. After the desired period of time, the kill in % is determined. 100% means that all caterpillars have been killed; 0% means that none of the caterpillars have been killed.

[3] = tested on: black bean aphid (Aphis fabae); test: Aphis fabae test; assay type: in vivo
Protocol: as §1, with “Shoots of young broadbeans (Vicia faba) which are heavily infested by the black bean aphid (Aphis fabae)” for “Cabbage leaves (Brassica oleracea)”, “concentration.” for “concentration and populated with caterpillars of the diamond back moth (Plutella xylostella) while the leaves are still moist.”, “aphids” for “caterpillars”

[4] = tested on: larvae of the mustard beetle (Phaedon cochleariae); test: Phaedon larvae test (cabbage leaves dipped); assay type: in vivo
Protocol: [table] To produce a suitable preparation of active compound, 1 part by weight of active compound is mixed with the stated amount of solvent and the stated amount of emulsifier, and the concentrate is diluted with water to the desired concentration. Cabbage leaves (Brassica oleracea) are treated by being dipped into the active compound preparation of the desired concentration and populated with larvae of the mustard beetle (Phaedon cochleariae) while the leaves are still moist. After the desired period of time, the kill in % is determined. 100% means that all beetle larvae have been killed; 0% means that none of the beetle larvae have been killed.

[5] = tested on: caterpillars of the army worm (Spodoptera frugiperda); test: Spodoptera frugiperda test (cabbage leaves dipped); assay type: in vivo; details: for Kill rate in % after 7 d: 500 ppm, leaf dip, Brassica oleracea
Protocol: [table] To produce a suitable preparation of active compound, 1 part by weight of active compound is mixed with the stated amount of solvent and the stated amount of emulsifier, and the concentrate is diluted with emulsifier-containing water to the desired concentration. Cabbage leaves (Brassica oleracea) are treated by being dipped into the active compound preparation of the desired concentration and populated with caterpillars of the army worm (Spodoptera frugiperda) while the leaves are still moist. After the desired period of time, the kill in % is determined. 100% means that all caterpillars have been killed; 0% means that none of the caterpillars have been killed.

[6] = logP determination by HPLC on reversed-phase column (C 18), EEC Directive 79/831 Annex V.A8; assay type: physicochemical; details: reversed-phase C 18, 43° C., acid range (0.1% aqueous phosphoric acid, acetonitrile), marked a)
Method in brief: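 Reversed-phase C18 HPLC at 43° C, per EEC Directive 79/831 Annex V.A8, acid range: 0.1% aqueous phosphoric acid with linear 10–90% acetonitrile gradient. logP derived from retention time by linear interpolation between calibrating unbranched alkan-2-ones (C3–C16) of known logP.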

[7] = tested on: Meloidogyne incognita; test: Meloidogyne test (gall formation on lettuce roots); assay type: in vivo; details: for Kill rate in % after 14 d (nematicidal effect by gall formation): 20 ppm, lettuce in sand
Protocol: [table] To produce a suitable preparation of active compound, 1 part by weight of active compound is mixed with the stated amounts of solvent and emulsifier, and the concentrate is diluted with water to the desired concentration. Vessels are filled with sand, active compound solution, Meloidogyne incognita egg/larvae suspension and lettuce seeds. The lettuce seeds germinate and the plants develop. On the roots, galls are formed. After the desired period of time, the nematicidal effect is determined in % by means of gall formation. 100% means that no galls were found; 0% means that the number of galls on the treated plants corresponds to that of the untreated control.

[8] = tested on: cotton aphid (Aphis gossypii); test: Aphis gossypii test; assay type: in vivo; details: for Kill rate in % after 7 d: 500 g/ha, spray, Gossypium hirsutum
Protocol: (§2) [table] To produce a suitable preparation of active compound, 1 part by weight of active compound is mixed with the stated amounts of solvent and emulsifier, and the concentrate is diluted with emulsifier-containing water to the desired concentration. Cotton leaves (Gossypium hirsutum) which are heavily infested by the cotton aphid (Aphis gossypii) are treated by spraying with the active compound preparation at the desired concentration. After the desired period of time, the kill in % is determined. 100% means that all animals have been killed; 0% means that none of the animals have been killed.

[9] = tested on: larvae of the mustard beetle (Phaedon cochleariae); test: Phaedon test (spray treatment); assay type: in vivo; details: for Kill rate in % after 7 d: 500 g/ha, spray, Brassica pekinensis disks
Protocol: (§3) [table] To produce a suitable preparation of active compound, 1 part by weight of active compound is mixed with the stated amounts of solvents and emulsifier, and the concentrate is diluted with emulsifier-containing water to the desired concentration. Disks of Chinese cabbage (Brassica pekinensis) are sprayed with an active compound preparation of the desired concentration and, after drying, populated with larvae of the mustard beetle (Phaedon cochleariae). After the desired period of time, the effect in % is determined. 100% means that all beetle larvae have been killed; 0% means that none of the beetle larvae have been killed.

[10] = tested on: caterpillars of the army worm (Spodoptera frugiperda); test: Spodoptera frugiperda test (corn leaf disks sprayed); assay type: in vivo; details: for Kill rate in % after 7 d: 500 g/ha, spray, Zea mays leaf disks
Protocol: as §3, with “corn leaves (Zea mays)” for “Chinese cabbage (Brassica pekinensis)”, “caterpillars” for “larvae”, “army worm (Spodoptera frugiperda).” for “mustard beetle (Phaedon cochleariae).”, “caterpillars” for “beetle larvae”

[11] = tested on: green peach aphid (Myzus persicae); test: Myzus test - oral; assay type: in vivo; details: for Kill rate in % after 6 d: 20 ppm, oral (sucking)
Protocol: [table] To produce a suitable preparation of active compound, 1 part by weight of active compound is mixed with the stated amounts of solvent, and the concentrate is diluted with water to the desired concentration. Vessels are populated with all stages of the green peach aphid (Myzus persicae), which are treated by sucking on the active compound preparation of the desired concentration. After the desired period of time, the effect in % is determined. 100% means that all aphids have been killed; 0% means that none of the aphids have been killed.

[12] = tested on: green peach aphid (Myzus persicae); test: Myzus test (spray treatment, Brassica oleracea); assay type: in vivo; details: for Kill rate in % after 7 d: 500 g/ha, spray, Brassica oleracea
Protocol: as §2, with “Cabbage” for “Cotton”, “(Brassica oleracea)” for “(Gossypium hirsutum)”, “green peach” for “cotton”, “(Myzus persicae)” for “(Aphis gossypii)”

[13] = tested on: common spidermite (Tetranychus urticae); test: Tetranychus test; assay type: in vivo; details: for Kill rate in % after 5 d: 500 ppm, spray, Phaseolus vulgaris disks
Protocol: To produce a suitable preparation of active compound, 1 part by weight of active compound is mixed with the stated amounts of solvent and emulsifier, and the concentrate is diluted with emulsifier-containing water to the desired concentration.
Disks of beans (Phaseolus vulgaris), which are infested by all stages of the common spidermite (Tetranychus urticae) are sprayed with an active compound preparation of the desired concentration.
After the desired period of time, the effect in % is determined. 100% means that all spidermites have been killed; 0% means that none of the spidermites have been killed.

SMILES: CCN1C(=O)C(O)=C(c2c(C)cc(C)cc2C)C1=O [Example 1, 1-ethyl-3-hydroxy-4-(2,4,6-trimethylphenyl)-1H-pyrrole-2,5-dione]
- melting point: 168 °C

SMILES: CCN1C(=O)C(OC(=O)C(C)(C)C)=C(c2c(C)cc(C)cc2C)C1=O [Example 2, 1-ethyl-3-pivaloyloxy-4-(2,4,6-trimethylphenyl)-1H-pyrrole-2,5-dione]
- melting point: 91 °C
- activity in the Myzus test (spray, Brassica pekinensis) [1]: good activity
- Kill rate in % after 5 d [1]: 90%

SMILES: CCN1C(=O)C(OC(C)=O)=C(c2c(C)cc(C)cc2C)C1=O [Example 3]
- activity in the Plutella test [2]: good activity
- Kill rate in % after 7 d ([2]; 1000 ppm, leaf dip): 90%
- activity in the Myzus test (spray, Brassica pekinensis) [1]: good activity
- Kill rate in % after 5 d [1]: 90%

SMILES: C=CCN1C(=O)C(O)=C(c2c(C)cc(C)cc2C)C1=O [Example 4]
- activity in the Aphis fabae test [3]: good activity
- Kill rate in % after 6 d ([3]; 1000 ppm, Vicia faba shoots dipped): 99%
- activity in the Phaedon larvae test [4]: good activity
- Kill rate in % after 7 d ([4]; 1000 ppm, leaf dip, Brassica oleracea): 100%
- activity in the Myzus test (spray, Brassica pekinensis) [1]: good activity
- Kill rate in % after 5 d [1]: 70%

SMILES: O=C1C(O)=C(c2ccc(C(F)(F)F)cc2)C(=O)N1c1ccc(OC(F)(F)F)cc1 [Example 10]
- activity in the Spodoptera frugiperda test (leaf dip) [5]: good activity
- Kill rate in % after 7 d [5]: 100%
- logP [6]: logP = 3.64^a)
- activity in the Meloidogyne test [7]: good activity
- Kill rate in % after 14 d (nematicidal effect by gall formation) [7]: 99%

SMILES: CC(C)(C)C(=O)OC1=C(c2ccccc2Br)C(=O)N(C2CCCC(C(F)(F)F)C2)C1=O (stereo not drawn) [Example 185]
- activity in the Aphis gossypii test [8]: good activity
- Kill rate in % after 7 d [8]: 95%
- logP [6]: logP = 5.34^a)
- activity in the Phaedon test (spray treatment) [9]: good activity
- Kill rate in % after 7 d [9]: 100%
- activity in the Spodoptera frugiperda test (spray) [10]: good activity
- Kill rate in % after 7 d [10]: 100%
- activity in the Myzus test - oral [11]: good activity
- Kill rate in % after 6 d [11]: 100%
- activity in the Myzus test (spray, Brassica oleracea) [12]: good activity
- Kill rate in % after 7 d [12]: 95%
- activity in the Tetranychus test [13]: good activity
- Kill rate in % after 5 d [13]: 80%
- activity in the Myzus test (spray, Brassica pekinensis) [1]: good activity
- Kill rate in % after 5 d [1]: 100%

SMILES: CC(C)(C)C(=O)OC1=C(c2ccccc2Cl)C(=O)N(C2CCCC(C(F)(F)F)C2)C1=O (stereo not drawn) [Example 201]
- activity in the Aphis gossypii test [8]: good activity
- Kill rate in % after 7 d [8]: 99%
- logP [6]: logP = 5.29^a)
- activity in the Phaedon test (spray treatment) [9]: good activity
- Kill rate in % after 7 d [9]: 100%
- activity in the Spodoptera frugiperda test (spray) [10]: good activity
- Kill rate in % after 7 d [10]: 100%
- activity in the Myzus test - oral [11]: good activity
- Kill rate in % after 6 d [11]: 100%
- activity in the Myzus test (spray, Brassica oleracea) [12]: good activity
- Kill rate in % after 7 d [12]: 98%
- activity in the Tetranychus test [13]: good activity
- Kill rate in % after 5 d [13]: 100%
- activity in the Myzus test (spray, Brassica pekinensis) [1]: good activity
- Kill rate in % after 5 d [1]: 100%

SMILES: N#Cc1ccc(C2=C(O)C(=O)N(C3CCCC(C(F)(F)F)C3)C2=O)cc1 (stereo not drawn) [Example 215]
- activity in the Spodoptera frugiperda test (leaf dip) [5]: good activity
- Kill rate in % after 7 d [5]: 85%
- logP [6]: logP = 3.04^a)
- activity in the Meloidogyne test [7]: good activity
- Kill rate in % after 14 d (nematicidal effect by gall formation) [7]: 80%

SMILES: CC(C)(C)C(=O)OC1=C(c2ccccc2C(F)(F)F)C(=O)N(C2CCCC(C(F)(F)F)C2)C1=O (stereo not drawn) [Example 220]
- activity in the Phaedon test (spray treatment) [9]: good activity
- Kill rate in % after 7 d [9]: 100%
- activity in the Meloidogyne test [7]: good activity
- Kill rate in % after 14 d (nematicidal effect by gall formation) [7]: 80%
- activity in the Myzus test (spray, Brassica pekinensis) [1]: good activity
- Kill rate in % after 5 d [1]: 100%
